Experimental findings from patent US20230286983A1 (4E Therapeutics, Inc., priority 2020, published 2023) are described below.

As a reminder, the IC50 is the midpoint of a concentration-inhibition curve. As usually defined, the Papp A→B is how fast a substance crosses the layer from the apical side. A high value points to fast passage. The term Papp B→A denotes how fast a substance crosses the layer from the basolateral side.

Series [1] concerns the target MNK1 (Homo sapiens, UniProt Q9BUB5). Briefly: MNK1 substrate phosphorylation assay. The format is biochemical. Conditions: recombinant human kinase.
In series [2] the target is MNK2 (Homo sapiens, UniProt Q9HBH9). Briefly: MNK2 substrate phosphorylation assay. It counts as biochemical. Conditions: recombinant human kinase.
The subject of series [3] is eIF4E phosphorylation at Serine 209 in the human embryonic kidney (HEK) 293 cell line. Briefly: eIF4E phosphorylation in HEK 293 cells (fluorescent plate reader). The format is cell-based. Conditions: eIF4E phosphorylation at Serine 209, 2 hours exposure. As for the experimental part:
The ability of MNK inhibitors described herein to inhibit eIF4E phosphorylation at Serine 209 in the human embryonic kidney (HEK) 293 cell line was tested by exposing the cells to compound for 2 hours and then measuring eIF4E phosphorylation with a phosphorylation-specific antibody in a fluorescent plate reader. These experiments were done with HEK-293 cells plated on 96 well plates. Following treatment, cells were fixed with ice cold methanol for 10 min and then washed in 1× phosphate buffered saline (PBS) and the permeabilized with 0.02% Triton X-100 in 10% normal goat serum made up in PBS. Primary antibody was applied overnight at a concentration dilution of 1:2000 (p-eIF4E antibody from Cell Signaling ab76256). Following washing, cells were then exposed to secondary antibody conjugated to alexa-fluor 488 and then visualized on a Syngergy HTX plate reader. Fluorescence for p-eIF4E was measured and normalized to total DAPI fluorescence to determine the percentage of eIF4E phosphorylation in each well. Data were plotted in Graphpad Prism V8 to determine concentration-response effects and calculate IC50 values.

In series [4] the test system is MDCK-MDR1. In words: MDCK-MDR1 permeability (blood brain barrier permeability). The format is in vitro ADME, Canine. Conditions: 5 μM; for Papp A-B: Apical to basolateral transport; for Papp A-B / Papp B-A: average of two experiments; for Papp B-A: Basolateral to apical transport.
Series [5] in a line: Liver microsome stability, mouse. Conditions: for half-life: mouse, liver microsomes. It counts as in vitro ADME. On the technique in general: Microsomes from liver hold many membrane-bound enzymes, among them those of drug oxidation.
The test system of series [6] is P-gp (human MDR1, ABCB1). In words: MDCK-MDR1 permeability (blood brain barrier permeability). It counts as in vitro ADME, Canine. Conditions: dog; for efflux ratio at 5 μM: MDCK-MDR1, 5 μM, read-out: Efflux ratio (ratio B-A/A-B); for Papp A→B at 5 μM: MDCK-MDR1, Apical to basolateral transport; for Papp A→B at 5 μM / Papp B→A at 5 μM: average of two experiments; for Papp B→A at 5 μM: MDCK-MDR1, Basolateral to apical transport.

A short description of series [7]: Liver microsome stability, human. Conditions: liver microsomes. It counts as in vitro ADME.
The mark [8] stands for this setting: mouse liver microsomes, Table 11b.

MNK2, sequence (Q9HBH9 whole entry): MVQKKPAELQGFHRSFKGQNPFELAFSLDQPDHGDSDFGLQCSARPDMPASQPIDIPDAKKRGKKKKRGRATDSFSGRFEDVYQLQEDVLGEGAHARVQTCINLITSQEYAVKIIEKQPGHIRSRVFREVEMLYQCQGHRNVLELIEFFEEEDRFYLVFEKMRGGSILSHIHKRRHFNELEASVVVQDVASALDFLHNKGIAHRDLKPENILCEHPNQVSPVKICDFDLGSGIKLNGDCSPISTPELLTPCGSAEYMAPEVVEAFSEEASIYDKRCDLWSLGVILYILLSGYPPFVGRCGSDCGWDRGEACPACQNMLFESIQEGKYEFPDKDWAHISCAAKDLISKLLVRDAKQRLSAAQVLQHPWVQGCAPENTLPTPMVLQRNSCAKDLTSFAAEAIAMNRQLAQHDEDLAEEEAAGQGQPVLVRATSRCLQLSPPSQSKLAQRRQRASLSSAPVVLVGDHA
MNK1, sequence (Q9BUB5 whole entry): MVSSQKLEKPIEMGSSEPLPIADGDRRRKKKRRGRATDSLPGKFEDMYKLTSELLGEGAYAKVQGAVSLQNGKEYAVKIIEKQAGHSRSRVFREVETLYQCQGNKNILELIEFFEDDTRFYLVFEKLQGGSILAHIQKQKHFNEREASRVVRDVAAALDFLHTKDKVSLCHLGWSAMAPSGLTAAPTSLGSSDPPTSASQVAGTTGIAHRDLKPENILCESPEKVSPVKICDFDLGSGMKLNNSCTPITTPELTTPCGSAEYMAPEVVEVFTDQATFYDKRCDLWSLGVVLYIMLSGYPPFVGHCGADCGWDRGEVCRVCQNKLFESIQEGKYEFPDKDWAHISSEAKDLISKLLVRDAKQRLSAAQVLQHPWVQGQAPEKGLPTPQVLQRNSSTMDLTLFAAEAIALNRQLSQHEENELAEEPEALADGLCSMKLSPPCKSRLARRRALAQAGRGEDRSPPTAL

`Cc1cc(Nc2cc(NC(=O)C3CC3)ncn2)c(=O)n2c1C(=O)NC21C[C@H]2CNC[C@H]2C1` (single isomer, unassigned) [Compound 4ET-03-050A, N-(6-((8′-Methyl-1′,5′-dioxo-1′,2,3,3a,4,5′,6,6a-octahydro-1H,2′H-spiro[cyclopenta[c]pyrrole-5,3′-imidazo[1,5-a]pyridin]-6′-yl)amino)pyrimidin-4-yl)cyclopropanecarboxamide]: the IC50 in series [1] came out at 35 nM; in series [2], 1.32 nM; in series [3], 2.6 nM. Also, the “Efflux ratio (ratio B-A/A-B)” value in series [4] is given as 12.4. Besides, the “Papp A-B” value in series [4] is 2 ×10⁻⁶ cm/s. In series [4], the “Papp B-A” value is 24.5 ×10⁻⁶ cm/s. In series [5] (setting [8]), this compound gave a T1/2 of 1.2 h.
In the case of `Cc1cc(Nc2cc(N)ncn2)c(=O)n2c1C(=O)NC21C[C@H]2COC[C@H]2C1` (single isomer, unassigned) [Compound 4ET-01-014B, 6′-((6-Aminopyrimidin-4-yl)amino)-8′-methyl-3a,4,6,6a-tetrahydro-1H,2′H,3H-spiro[cyclopenta[c]furan-5,3′-imidazo[1,5-a]pyridine]-1′,5′-dione], the IC50 in series [1] was determined as 24.5 nM. Moreover, the IC50 in series [2] is 4.6 nM. Besides, the half-inhibitory concentration (IC50) in series [3] amounted to 67.4 nM. Also, in series [4], the “Efflux ratio (ratio B-A/A-B)” value was 2.4, the “Papp A-B” value was determined as 2.4 ×10⁻⁶ cm/s and the “Papp B-A” value was determined as 5.8 ×10⁻⁶ cm/s. In addition, the T1/2 in series [5] (setting [8]) worked out at 7.17 h.
Consider `Cc1cc(Nc2cc(NC(=O)C3CC3)ncn2)c(=O)n2c1C(=O)NC21C[C@H]2CNC[C@H]2C1` (single isomer, unassigned) [Compound 4ET-03-050B, N-(6-((8′-Methyl-1′,5′-dioxo-1′,2,3,3a,4,5′,6,6a-octahydro-1H,2′H-spiro[cyclopenta[c]pyrrole-5,3′-imidazo[1,5-a]pyridin]-6′-yl)amino)pyrimidin-4-yl)cyclopropanecarboxamide], for which, in series [1], the IC50 turned out to be 40.9 nM. Further, in series [2], the IC50 was 6.84 nM. In addition, the half-inhibitory concentration (IC50) in series [3] stood at 150 nM. Also, in series [4], the “Efflux ratio (ratio B-A/A-B)” value was determined as 1.3, the “Papp A-B” value was determined as 0.7 ×10⁻⁶ cm/s and the “Papp B-A” value was 0.9 ×10⁻⁶ cm/s. The T1/2 in series [5] (setting [8]) is 7.07 h.
Consider `CC1=CC2(CCC1)NC(=O)c1c(C)cc(Nc3cc(N)ncn3)c(=O)n12` (stereo not shown) [Compound 4ET-01-058, 6′-((6-Aminopyrimidin-4-yl)amino)-3,8′-dimethyl-2′H-spiro[cyclohexane-1,3′-imidazo[1,5-a]pyridin]-2-ene-1′,5′-dione], for which the IC50 in series [1] came out at 58.4 nM. In addition, the IC50 in series [2] was found to be 6.5 nM. The same compound registered an IC50 in series [3] (Homo sapiens, HEK293, 2 h) of 10.9 nM. Moreover, in series [6], the efflux ratio at 5 μM was determined as 1.1, the Papp A→B at 5 μM came to 57.8 ×10⁻⁶ cm/s and the Papp B→A at 5 μM turned out to be 61.2 ×10⁻⁶ cm/s. For the same compound, the half-life in series [5] (mouse liver microsomes, Table 11b, read-out: T1/2) is 7.67 h.
Take `Cc1cc(Nc2cc(NC(=O)CN3CCOCC3)ncn2)c(=O)n2c1C(=O)NC21CCCCC1` [Compound 4ET-02-007, N-(6-((8′-Methyl-1′,5′-dioxo-1′,5′-dihydro-2′H-spiro[cyclohexane-1,3′-imidazo[1,5-a]pyridin]-6′-yl)amino)pyrimidin-4-yl)-2-morpholinoacetamide]: the IC50 in series [1] came to 89 nM; in series [2], 3.6 nM. In addition, in series [6], the efflux ratio at 5 μM amounted to 5.6. The Papp A→B at 5 μM in series [6] was 7.3 ×10⁻⁶ cm/s. The compound further came in with a Papp B→A at 5 μM in series [6] of 40.8 ×10⁻⁶ cm/s. Besides, the microsomal CLint in series [5] (Mouse liver microsomes (*), read-out: CLint rodent) was 8.7 µL/min/mg; in series [7] it was 6.42 µL/min/mg. Further, the half-life in series [5] (Mouse liver microsomes (*), Table 11a, read-out: Rodent liver microsomes t1/2) is 2.65 h; in series [7] (read-out: Human liver microsomes t1/2) it was 3.6 h.
